Counter-ions that a name gives are not always drawn.
Key:
[1] = Solubility (logS experimental, aqueous solubility, DMSO); format: physicochemical
[2] = test system: IL-1β; test: ELISA of hippocampal homogenates after KA-induced seizures on P15: IL-1β; format: in vivo, rat; settings: Mzc 5 mg/kg ip at 3 and 9 hr after KA on P15; 12 hr recovery; mean±SEM
Experimental: (§1) Hippocampal homogenates were prepared by sonication in protease inhibitor cocktail (1 μg leupeptin (Sigma, St. Louis, Mo.), 0.001 M 4-dithio-L-threitol (DTT, Sigma), 0.002 M sodium orthovanadate (Sigma) and 0.001 M phenylmethanesulfonyl fluorid (PMSF, FLUKA, Switzerland) in 1 ml PBS). Total protein concentration was measured using commercially available reagents (BCA, Pierce, Rockford, Ill.).
(§2) Levels of IL-1β, IL-6, and TNF-α, were measured in hippocampal homogenates by enzyme linked immunosorbent assay using commercially available plates and reagents (ELISA; MesoScale Discovery, MSD, Gaithersburg, Md.). S100B levels were measured as described (26). Samples were analyzed in duplicates and compared with known concentrations of protein. Plates were analyzed using the SECTOR Imager 2400 (MSD).
(§3) To determine whether suppression of early cytokine increases would prevent long-term glial activation and improve neurobehavioral outcome after early-life seizures, P15 rats were administered Minozac (Mzc). […] Mzc (5 mg/kg) or diluent (saline) was administered via ip injection at 3 and 9 hr following KA injection on P15 (FIG. 7). Control animals were injected an equal volume of saline (Sal). At 12 hr, animals were sacrificed, and tissues were processed for analysis of pro-inflammatory cytokines by ELISA as above.

[3] = test system: GFAP; test: Immunohistochemical quantification of GFAP immunoreactive cells in hippocampus (glial activation); format: in vivo, rat; settings: Mzc 5 mg/kg ip at 3 and 9 hr after KA on P15; 30 days recovery; mean±SEM
Experimental: (§4) Immunohistochemical detection of hippocampal markers of glial activation and astrocyte glutamate transporters was performed in five μm paraffin-embedded sections using Vectastain Elite ABC immunodetection kits and diaminobenzidine substrate (DAB) (Vector Laboratories, Burlingame Calif.). The following primary antibodies were used: GFAP (1:1500, mouse monoclonal, Sigma); S100B (1:1500, rabbit polyclonal, DAKO Cytomation, Carpinteria, Calif.); Ibal (1:400, goat polyclonal, Abcam, Cambridge, Mass.); FH (1:400, goat polyclonal, Quidel); β-clusterin (1:100, goat polyclonal, Santa Cruz); GLAST (1:5000 guinea pig polyclonal, Chemicon International, Temecula, Calif.) and GLT-1 (1:5000, guinea pig polyclonal, Chemicon). Control sections were incubated in normal serum or PBS in place of primary antibody. […]
(§5) Sections were examined under brightfield microscopy by two blinded observers (Nikon Eclipse E800). For GFAP, S100B, Ibal, FH, clusterin, GLAST and GLT-1 sections, the CAI, CA2, CA3, DG and PoDG were photographed at 10× magnification, and images were converted to grayscale for quantification of immunoreactive cells. The percentage of positive cells in the hippocampal regions specified was measured by thresholding for dark objects indicative of immunoreactive cells (Metamorph, Universal Imaging Corporation, Sunnyvale, Calif.). […] Changes in the morphology of immunoreactive cells were not assessed. […]

[4] = test system: IL-6; test: ELISA of hippocampal homogenates after KA-induced seizures on P15: IL-6; format: in vivo, rat; settings: Mzc 5 mg/kg ip at 3 and 9 hr after KA on P15; 12 hr recovery; mean±SEM
Experimental: as §1, §2, §3

[5] = test system: S100B; test: S100B level in hippocampal homogenates after KA-induced seizures on P15; format: in vivo, rat; settings: Mzc 5 mg/kg ip at 3 and 9 hr after KA on P15; 12 hr recovery; mean±SEM
Experimental: as §1, §2, §3

[6] = test system: KA-induced seizures on P15; test: Y-maze test of spontaneous alternation after KA-induced early-life seizures; format: in vivo, rat; settings: Mzc 5 mg/kg ip at 3 and 9 hr after KA on P15; after 30 days recovery; mean±SEM
Experimental: On either postnatal day (P)15 or 45, rats were administered either KA (Ocean Produce International, Nova Scotia) or equivalent volume of vehicle, phosphate-buffered saline (PBS, pH 7.4) (2). The dose of KA on P 15 (5 mg/kg) and P45 (15 mg/kg) was based on the age-dependent difference in threshold for KA-induced seizures (22). All injections were intraperitoneal (ip).
The Y-maze test of spontaneous alternation was used to evaluate hippocampus-dependent spatial learning (26, 27). Testing began on P27 when animals were first able to decide between the left or right arm of the maze. Testing was performed by a blinded observer on alternate days until P55. Each animal started in the vertical arm of the Y-maze. If the animal selected a different arm on the second run in the maze, it was scored as alternating. The percent alternation over the duration of testing was calculated for each animal.
as §3, with “At 12 hr, animals were sacrificed, and tissues were processed for analysis of pro-inflammatory cytokines by ELISA as above.” left out

[7] = test system: S100B; test: Immunohistochemical quantification of S100B immunoreactive cells in hippocampus (glial activation); format: in vivo, rat; settings: Mzc 5 mg/kg ip at 3 and 9 hr after KA on P15; 30 days recovery; mean±SEM
Experimental: as §4, §5

[8] = cited from earlier work
[9] = test system: Alzheimer's disease mouse model; settings: cited from earlier work
[10] = test system: TNF-α; test: ELISA of hippocampal homogenates after KA-induced seizures on P15: TNF-α; format: in vivo, rat; settings: Mzc 5 mg/kg ip at 3 and 9 hr after KA on P15; 12 hr recovery; mean±SEM
Experimental: as §1, §2, §3

SMILES	solubility in DMSO [1]	IL-1β level in hippocampal brain homogenates [2] [% control]	GFAP immunoreactive cells in hippocampus [3] [% immuno-positive cells]	IL-6 level in hippocampal brain homogenates [4] [% control]	S100B level in hippocampal brain homogenates [5] [% control]	percent alternation in Y-maze [6] [% alternation]	S100B immunoreactive cells in hippocampus [7] [% immuno-positive cells]	CNS penetration [8]	bioavailability [8]	toxicity [8]	water solubility [8]	effect on hippocampal pro-inflammatory cytokine upregulation [9]	effect on hippocampal-dependent behavioral deficits [9]	effect on synaptic dysfunction [9]	TNF-α level in hippocampal brain homogenates [10] [% control]
Cc1cc(-c2ccccc2)nnc1N1CCN(c2ncccn2)CC1.Cl.Cl [2-(4-(4-methyl-6-phenylpyridazin-3-yl)piperazin-1-yl)pyrimidine dihydrochloride salt]	soluble in DMSO														
Cc1cc(-c2ccccc2)nnc1N1CCN(c2ncccn2)CC1 [Mzc, 2-(4-(4-methyl-6-phenylpyridazin-3-yl)piperazin-1-yl)pyrimidine dihydrochloride monohydrate]		103.7±4.6	20.9±1.8	103.2±3.8	89.1±9.7	79.5±2.5	8.1±0.9	CNS-penetrant	bioavailable	non-toxic	water-soluble	inhibits hippocampal pro-inflammatory cytokine upregulation	attenuates hippocampal-dependent behavioral deficits	suppresses synaptic dysfunction	98.5±3.9

From patent US20100210590A1, “COMPOSITIONS AND TREATMENTS FOR SEIZURE-RELATED DISORDERS” (NORTHWESTERN UNIVERSITY, priority 1995, published 2010)
